According to ChEMBL document CHEMBL1909046, “DrugMatrix in vitro pharmacology data”:

What was measured:
[1] = DRUGMATRIX: Tumor Necrosis Factor (TNF), Non-Selective radioligand binding (ligand: [125I] TNF-alpha); assay type: cell membranes, Membrane; details: u-937; Not Active = under 50% inhibition at 10 µM
[2] = biological target: T1, Receptor-type tyrosine-protein phosphatase C (Homo sapiens, UniProt P08575); set-up: species or system Escherichia coli;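 further: inhibition of CD45 enzyme activity measured using DiFMUP as substrate; in other assays of this panel Not Active means under 50% inhibition at 10 µM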
T1 sequence (P08575 whole entry): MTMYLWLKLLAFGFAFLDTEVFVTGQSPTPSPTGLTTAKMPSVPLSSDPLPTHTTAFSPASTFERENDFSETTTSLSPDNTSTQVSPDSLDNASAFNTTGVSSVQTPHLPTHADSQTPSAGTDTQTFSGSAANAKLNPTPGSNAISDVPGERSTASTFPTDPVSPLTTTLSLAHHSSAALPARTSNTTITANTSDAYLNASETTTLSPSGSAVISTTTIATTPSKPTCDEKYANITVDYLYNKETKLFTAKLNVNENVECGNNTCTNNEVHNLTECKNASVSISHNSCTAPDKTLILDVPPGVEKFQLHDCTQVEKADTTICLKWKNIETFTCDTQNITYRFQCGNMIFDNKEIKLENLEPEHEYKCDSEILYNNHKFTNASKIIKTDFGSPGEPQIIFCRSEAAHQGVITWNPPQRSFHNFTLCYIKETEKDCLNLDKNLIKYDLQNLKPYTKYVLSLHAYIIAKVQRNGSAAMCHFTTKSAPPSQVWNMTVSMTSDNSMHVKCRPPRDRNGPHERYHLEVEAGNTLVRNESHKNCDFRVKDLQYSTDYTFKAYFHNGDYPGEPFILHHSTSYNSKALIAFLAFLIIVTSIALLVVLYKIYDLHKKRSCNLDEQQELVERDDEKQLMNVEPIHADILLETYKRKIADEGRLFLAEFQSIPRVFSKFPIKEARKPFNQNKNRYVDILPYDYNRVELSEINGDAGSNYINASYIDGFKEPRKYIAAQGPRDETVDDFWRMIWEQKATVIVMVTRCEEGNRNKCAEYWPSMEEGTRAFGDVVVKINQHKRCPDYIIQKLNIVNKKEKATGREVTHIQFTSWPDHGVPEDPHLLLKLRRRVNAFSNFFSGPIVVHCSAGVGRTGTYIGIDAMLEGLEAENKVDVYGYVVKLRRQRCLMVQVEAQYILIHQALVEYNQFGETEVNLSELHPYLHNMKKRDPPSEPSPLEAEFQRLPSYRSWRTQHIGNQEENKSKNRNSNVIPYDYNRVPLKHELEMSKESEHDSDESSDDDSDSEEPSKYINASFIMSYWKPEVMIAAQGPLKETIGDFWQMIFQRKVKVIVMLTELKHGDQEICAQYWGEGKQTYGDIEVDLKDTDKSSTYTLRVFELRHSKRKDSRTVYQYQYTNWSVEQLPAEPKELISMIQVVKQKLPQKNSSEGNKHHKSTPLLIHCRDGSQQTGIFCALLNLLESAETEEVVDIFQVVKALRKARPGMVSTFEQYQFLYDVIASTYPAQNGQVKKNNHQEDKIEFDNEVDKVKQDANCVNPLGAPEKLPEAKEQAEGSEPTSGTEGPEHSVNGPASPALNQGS

[3] = DRUGMATRIX: Phosphodiesterase PDE4 enzyme inhibition (substrate: [3H]cAMP + cAMP); details: u-937; Not Active = under 50% inhibition at 10 µM
[4] = biological target: T2, Neuropeptide Y receptor type 2 (Homo sapiens, UniProt P49146); assay type: cell membranes, KAN-TS, Membrane; details: kan-ts; further: in other assays of this panel Not Active means under 50% inhibition at 10 µM
T2 sequence (P49146 whole entry): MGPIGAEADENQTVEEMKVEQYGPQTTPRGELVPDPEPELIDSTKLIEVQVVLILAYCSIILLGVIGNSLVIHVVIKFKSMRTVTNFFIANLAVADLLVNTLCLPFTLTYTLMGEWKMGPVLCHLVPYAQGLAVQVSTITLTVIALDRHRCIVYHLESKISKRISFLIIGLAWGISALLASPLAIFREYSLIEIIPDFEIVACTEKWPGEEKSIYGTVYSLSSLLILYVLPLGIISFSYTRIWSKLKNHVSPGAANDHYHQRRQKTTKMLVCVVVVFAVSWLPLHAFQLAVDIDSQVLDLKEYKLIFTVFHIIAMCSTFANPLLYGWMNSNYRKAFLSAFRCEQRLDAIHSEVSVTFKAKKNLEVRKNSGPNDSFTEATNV

[5] = biological target: T3, C-X-C chemokine receptor type 1 (Homo sapiens, UniProt P25024); further: in other assays of this panel Not Active means under 50% inhibition at 10 µM
T3 sequence (P25024 whole entry): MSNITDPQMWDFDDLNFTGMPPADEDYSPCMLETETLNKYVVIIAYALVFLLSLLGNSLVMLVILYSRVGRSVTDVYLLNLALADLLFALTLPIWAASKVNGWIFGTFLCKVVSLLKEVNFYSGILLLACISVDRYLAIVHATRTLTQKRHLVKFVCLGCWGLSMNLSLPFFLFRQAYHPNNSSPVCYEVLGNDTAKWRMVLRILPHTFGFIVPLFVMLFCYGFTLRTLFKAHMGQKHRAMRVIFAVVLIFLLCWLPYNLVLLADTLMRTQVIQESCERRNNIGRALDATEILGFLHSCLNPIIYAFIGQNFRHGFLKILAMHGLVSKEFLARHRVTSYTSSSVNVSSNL

[6] = biological target: Delta-type opioid receptor (Homo sapiens, UniProt P41143); assay type: cell membranes, Membrane; details: hek293; further: in other assays of this panel Not Active means under 50% inhibition at 10 µM
Chain of Delta-type opioid receptor (P41143 whole entry): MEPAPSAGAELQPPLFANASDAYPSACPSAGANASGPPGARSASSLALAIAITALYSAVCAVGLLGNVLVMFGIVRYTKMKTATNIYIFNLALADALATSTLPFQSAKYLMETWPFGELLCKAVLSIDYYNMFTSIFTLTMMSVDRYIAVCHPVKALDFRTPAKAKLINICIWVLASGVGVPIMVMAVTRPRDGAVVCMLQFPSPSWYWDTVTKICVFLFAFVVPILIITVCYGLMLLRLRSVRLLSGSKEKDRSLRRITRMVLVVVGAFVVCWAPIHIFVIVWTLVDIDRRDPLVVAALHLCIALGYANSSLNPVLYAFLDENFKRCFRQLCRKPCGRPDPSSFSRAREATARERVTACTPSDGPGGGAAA

[7] = DRUGMATRIX: Phorbol Ester radioligand binding (ligand: [3H] PDBu); assay type: cell membranes, Mus musculus, ICR, Brain, Membrane; details: Not Active = under 50% inhibition at 10 µM
Cytochrome P450 2E1 = Cytochrome P450 2E1 (Homo sapiens, UniProt P05181); details: bti-tn-5b1-4; further: in other assays of this panel Not Active means under 50% inhibition at 10 µM
Chain of Cytochrome P450 2E1 (P05181 whole entry): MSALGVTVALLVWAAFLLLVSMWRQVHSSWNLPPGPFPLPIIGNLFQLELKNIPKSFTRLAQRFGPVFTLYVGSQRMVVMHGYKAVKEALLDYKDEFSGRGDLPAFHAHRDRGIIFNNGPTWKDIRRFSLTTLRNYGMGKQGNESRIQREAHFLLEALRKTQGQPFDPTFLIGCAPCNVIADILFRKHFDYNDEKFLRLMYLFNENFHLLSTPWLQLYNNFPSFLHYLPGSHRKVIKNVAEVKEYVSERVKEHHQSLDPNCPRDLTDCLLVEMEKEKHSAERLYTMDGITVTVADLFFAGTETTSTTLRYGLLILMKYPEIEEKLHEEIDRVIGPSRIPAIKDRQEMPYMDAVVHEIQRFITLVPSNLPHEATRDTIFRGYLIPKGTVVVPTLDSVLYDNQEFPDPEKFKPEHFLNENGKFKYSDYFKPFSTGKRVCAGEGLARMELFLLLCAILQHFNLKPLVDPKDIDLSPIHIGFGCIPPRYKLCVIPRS

Vasopressin V1a receptor = Vasopressin V1a receptor (Homo sapiens, UniProt P37288); assay type: cell membranes, Membrane; details: hek293; further: in other assays of this panel Not Active means under 50% inhibition at 10 µM
Chain of Vasopressin V1a receptor (P37288 whole entry): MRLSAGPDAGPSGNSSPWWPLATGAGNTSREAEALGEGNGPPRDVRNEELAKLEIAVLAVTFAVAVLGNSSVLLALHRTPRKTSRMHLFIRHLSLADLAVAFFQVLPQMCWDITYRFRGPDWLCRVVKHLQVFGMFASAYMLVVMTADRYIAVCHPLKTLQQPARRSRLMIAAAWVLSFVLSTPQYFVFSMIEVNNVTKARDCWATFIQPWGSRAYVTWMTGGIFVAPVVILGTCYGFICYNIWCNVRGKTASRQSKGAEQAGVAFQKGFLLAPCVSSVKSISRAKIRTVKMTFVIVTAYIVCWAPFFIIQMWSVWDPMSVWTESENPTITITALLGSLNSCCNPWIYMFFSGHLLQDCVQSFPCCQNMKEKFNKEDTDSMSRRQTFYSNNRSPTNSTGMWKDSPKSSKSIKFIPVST

O=C(c1ccccc1C(F)(F)F)N1CCC(Cc2ccccc2)CC1
Not Active: IC50 [1] | Ki [1] | IC50 [2] | IC50 [3] | Ki [3] | IC50 [4] | IC50 [5] | IC50 [6] | IC50 [7] | Ki [7] | IC50 (Cytochrome P450 2E1) | Ki (Cytochrome P450 2E1) | IC50 (Vasopressin V1a receptor)

O=C/C=C/c1ccccc1
Not Active: IC50 [1] | Ki [1] | IC50 [2] | IC50 [3] | Ki [3] | IC50 [4] | IC50 [5] | IC50 [6] | IC50 [7] | Ki [7] | IC50 (Cytochrome P450 2E1) | Ki (Cytochrome P450 2E1) | IC50 (Vasopressin V1a receptor)

Nc1ccc2c3c(cccc13)C(=O)NC2=O
Not Active: IC50 [1] | Ki [1] | IC50 [2] | IC50 [3] | Ki [3] | IC50 [4] | IC50 [5] | IC50 [6] | IC50 [7] | Ki [7] | IC50 (Cytochrome P450 2E1) | Ki (Cytochrome P450 2E1) | IC50 (Vasopressin V1a receptor)

COc1ccc(C(=O)N2CCCC2=O)cc1
Not Active: IC50 [1] | Ki [1] | IC50 [2] | IC50 [3] | Ki [3] | IC50 [4] | IC50 [5] | IC50 [6] | IC50 [7] | Ki [7] | IC50 (Cytochrome P450 2E1) | Ki (Cytochrome P450 2E1) | IC50 (Vasopressin V1a receptor)

COc1cc([C@@H]2c3cc4c(cc3[C@@H](O[C@@H]3O[C@@H]5CO[C@@H](C)O[C@H]5[C@H](O)[C@H]3O)[C@H]3COC(=O)[C@H]23)OCO4)cc(OC)c1O [ETOPOSIDE]
Not Active: IC50 [1] | Ki [1] | IC50 [2] | IC50 [3] | Ki [3] | IC50 [4] | IC50 [5] | IC50 [6] | IC50 [7] | Ki [7] | IC50 (Vasopressin V1a receptor)

COc1ccc2c3c1O[C@H]1C[C@@H](O)C=C[C@@]31CCN(C)C2 [GALANTAMINE]
Not Active: IC50 [1] | Ki [1] | IC50 [2] | IC50 [3] | Ki [3] | IC50 [4] | IC50 [5] | IC50 [6] | IC50 [7] | Ki [7] | IC50 (Vasopressin V1a receptor)

CC(C)=CCC/C(C)=C/CO [GERANIOL]
Not Active: IC50 [1] | Ki [1] | IC50 [2] | IC50 [3] | Ki [3] | IC50 [4] | IC50 [5] | IC50 [6] | IC50 [7] | Ki [7] | IC50 (Vasopressin V1a receptor)

CC(=O)[C@@]1(O)CC[C@H]2[C@@H]3CCC4=CC(=O)CC[C@]4(C)[C@H]3CC[C@@]21C [HYDROXYPROGESTERONE]
Not Active: IC50 [1] | Ki [1] | IC50 [2] | IC50 [3] | Ki [3] | IC50 [4] | IC50 [5] | IC50 [6] | IC50 [7] | Ki [7] | IC50 (Vasopressin V1a receptor)

CC(=O)O[C@H]1C(=O)[C@@]2(C)[C@H]([C@H](OC(=O)c3ccccc3)[C@]3(O)C[C@H](OC(=O)[C@H](O)[C@@H](NC(=O)c4ccccc4)c4ccccc4)C(C)=C1C3(C)C)[C@]1(OC(C)=O)CO[C@@H]1C[C@@H]2O [PACLITAXEL]
Not Active: IC50 [1] | Ki [1] | IC50 [2] | IC50 [3] | Ki [3] | IC50 [4] | IC50 [5] | IC50 [7] | Ki [7] | IC50 (Cytochrome P450 2E1) | Ki (Cytochrome P450 2E1) | IC50 (Vasopressin V1a receptor)

CC(C)NCC(O)COc1cccc2[nH]ccc12 (stereo not given) [PINDOLOL]
Not Active: IC50 [1] | Ki [1] | IC50 [2] | IC50 [3] | Ki [3] | IC50 [4] | IC50 [5] | IC50 [6] | IC50 [7] | Ki [7] | IC50 (Vasopressin V1a receptor)

CC(C)c1cccc(C(C)C)c1O [PROPOFOL]
Not Active: IC50 [1] | Ki [1] | IC50 [2] | IC50 [3] | Ki [3] | IC50 [4] | IC50 [5] | IC50 [6] | IC50 [7] | Ki [7] | IC50 (Vasopressin V1a receptor)
